From the supplement of paper PMC11208160

Assay: recombinant barcode read abundance after kanamycin selection (control-corrected) (log10(CPM+1)); higher = more efficient recombination; sequences stand for … in AGTGCAGAGAAAATCGGCCAGTTTTCTCTGCCTGCAGTCCGCATGCCGT…AGATTTATGCAGCGGACTGCCTTTCTCCCAAAGTGATAAACCGGACAGTATCATGGACCGGTTTTCCCGGTAATCCGTATTTGCAAGGTTGGTTTCACT; site = the 11-nt target
Summary of the method: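 In a pooled screen in E. coli, targets were paired with target-binding loops of the IS621 bridge RNA. Each oligo carried a promoter, a target, a barcode and the first 104 bridge RNA bases driven by J23119, and was Gibson-cloned into a vector holding the remaining 73 bp and a T7-inducible recombinase before co-electroporation with a donor plasmid. Duplicate platings went onto chloramphenicol/ampicillin LB agar as the control or onto chloramphenicol/ampicillin/kanamycin with 0.1 mM IPTG. Recombination efficiency is the averaged, control-corrected count per million of barcodes at recombinant junctions, given as log10(CPM+1).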
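Note: IS621 recombinase and bridge RNA in Escherichia coli cells.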

Point of comparison: “TAGAACACTTGGGTTCTAACCTGTTGCTC (site TAGAACACTAA)”, “recombinant barcode read abundance (log10)” value 0.421. Against it:
- TACTCAACTTGGGTTCTAACCTGTTGCCT (site TACTAAACTAG) — within 0.2 log units, 0.376
- TACTCAACTTGGGTTCTAACCTGTTGCCT (site TACTCAACTAG) — lower, 0.0463
- TACTCAACTTGGGTTCTAACCTGTTGCCT (site TACTGAACTAG) — lower, 0.0105
- TACTCAACTTGGGTTCTAACCTGTTGCCT (site TACTTAACTAG) — lower, 0
- TACTCACCTTGGGTTCTAACCTGTTGCTT (site ACTGGTTCTCG) — lower, 0.022
- TACTCACCTTGGGTTCTAACCTGTTGCTT (site TACTCACCTAA) — within 0.2 log units, 0.287
- TACTGATCTTGGGTTCTAACCTGTTGCCT (site TAATGATCTAG) — lower, 0.0666
- TACTGATCTTGGGTTCTAACCTGTTGCCT (site TACTGATCTAG) — within 0.2 log units, 0.461
- TACTGATCTTGGGTTCTAACCTGTTGCCT (site TAGTGATCTAG) — lower, 0.0404
- TACTGATCTTGGGTTCTAACCTGTTGCCT (site TATTGATCTAG) — lower, 0.0711
- TACTTCGCTTGGGTTCTAACCTGTTGCCT (site CACATCGCTAG) — lower, 0.042
- TACTTCGCTTGGGTTCTAACCTGTTGCCT (site TACTTCGCTAG) — lower, 0.193
- TAGAAAGCTTGGGTTCTAACCTGTTGCCA (site TAGAAAGCTTG) — higher, 0.633
- TAGAAAGCTTGGGTTCTAACCTGTTGCCA (site TAGGAAGCTTC) — lower, 0.139
- TAGAACACTTGGGTTCTAACCTGTTGCTC (site TAGAACACTCA) — lower, 0.151
- TAGAACACTTGGGTTCTAACCTGTTGCTC (site TAGAACACTGA) — within 0.2 log units, 0.262
- TAGAACACTTGGGTTCTAACCTGTTGCTC (site TAGAACACTTA) — lower, 0.0884
- TAGAACACTTGGGTTCTAACCTGTTGCTT (site TAGAACACTAA) — lower, 0.16
- TAGAACACTTGGGTTCTAACCTGTTGCTT (site TAGAACACTCA) — lower, 0.0447
- TAGAACACTTGGGTTCTAACCTGTTGCTT (site TAGAACACTGA) — lower, 0.153
- TAGAACACTTGGGTTCTAACCTGTTGCTT (site TAGAACACTTA) — lower, 0.169
- TAGAAGACTTGGGTTCTAACCTGTTGCAT (site TAGAAGACTAT) — higher, 1.01
- TAGAAGACTTGGGTTCTAACCTGTTGCAT (site TATAAGACTGT) — lower, 0.0979
- TAGAAGCCTTGGGTTCTAACCTGTTGCCT (site AAGAAGCCTAG) — within 0.2 log units, 0.248
- TAGAAGCCTTGGGTTCTAACCTGTTGCCT (site CAGAAGCCTAG) — within 0.2 log units, 0.43
- TAGAAGCCTTGGGTTCTAACCTGTTGCCT (site GAGAAGCCTAG) — lower, 0.06
- TAGAAGCCTTGGGTTCTAACCTGTTGCCT (site TAGAAGCCTAG) — higher, 1.11
- TAGAAGGCTTGGGTTCTAACCTGTTGCCT (site TAGAAGGCTAA) — lower, 0.139
- TAGAAGGCTTGGGTTCTAACCTGTTGCCT (site TAGAAGGCTAC) — lower, 0.1
- TAGAAGGCTTGGGTTCTAACCTGTTGCCT (site TAGAAGGCTAG) — lower, 0.216
- TAGAAGGCTTGGGTTCTAACCTGTTGCCT (site TAGAAGGCTAT) — within 0.2 log units, 0.325
- TAGAAGGCTTGGGTTCTAACCTGTTGCTT (site TAGAAGGCTAA) — higher, 0.805
- TAGAAGGCTTGGGTTCTAACCTGTTGCTT (site TAGAAGGCTAC) — lower, 0.0392
- TAGAAGGCTTGGGTTCTAACCTGTTGCTT (site TAGAAGGCTAG) — lower, 0.0656
- TAGAAGGCTTGGGTTCTAACCTGTTGCTT (site TAGAAGGCTAT) — within 0.2 log units, 0.28
- TAGAATCCTTGGGTTCTAACCTGTTGCAA (site TAGAATCCTAT) — lower, 0.15
- TAGAATCCTTGGGTTCTAACCTGTTGCAA (site TAGAATCCTCT) — lower, 0.123
- TAGAATCCTTGGGTTCTAACCTGTTGCAA (site TAGAATCCTGT) — lower, 0.116
- TAGAATCCTTGGGTTCTAACCTGTTGCAA (site TAGAATCCTTT) — lower, 0.147
- TAGACGGCTTGGGTTCTAACCTGTTGCAT (site GGATACACTCG) — lower, 0.191
- TAGACGGCTTGGGTTCTAACCTGTTGCAT (site TAGACGGCTAT) — within 0.2 log units, 0.463
- TAGAGAGCTTGGGTTCTAACCTGTTGCAG (site TAGAGAGCTCT) — higher, 1.94
